Assay results taken from ChEMBL document CHEMBL3991601, “The target landscape of clinical kinase drugs” (Science, 2017).
Calls of active or inactive are those of the source.

Assays:
[1] = target: T1, RNA cytidine acetyltransferase (Homo sapiens, UniProt Q9H0A0)
T1 sequence (Q9H0A0 whole entry): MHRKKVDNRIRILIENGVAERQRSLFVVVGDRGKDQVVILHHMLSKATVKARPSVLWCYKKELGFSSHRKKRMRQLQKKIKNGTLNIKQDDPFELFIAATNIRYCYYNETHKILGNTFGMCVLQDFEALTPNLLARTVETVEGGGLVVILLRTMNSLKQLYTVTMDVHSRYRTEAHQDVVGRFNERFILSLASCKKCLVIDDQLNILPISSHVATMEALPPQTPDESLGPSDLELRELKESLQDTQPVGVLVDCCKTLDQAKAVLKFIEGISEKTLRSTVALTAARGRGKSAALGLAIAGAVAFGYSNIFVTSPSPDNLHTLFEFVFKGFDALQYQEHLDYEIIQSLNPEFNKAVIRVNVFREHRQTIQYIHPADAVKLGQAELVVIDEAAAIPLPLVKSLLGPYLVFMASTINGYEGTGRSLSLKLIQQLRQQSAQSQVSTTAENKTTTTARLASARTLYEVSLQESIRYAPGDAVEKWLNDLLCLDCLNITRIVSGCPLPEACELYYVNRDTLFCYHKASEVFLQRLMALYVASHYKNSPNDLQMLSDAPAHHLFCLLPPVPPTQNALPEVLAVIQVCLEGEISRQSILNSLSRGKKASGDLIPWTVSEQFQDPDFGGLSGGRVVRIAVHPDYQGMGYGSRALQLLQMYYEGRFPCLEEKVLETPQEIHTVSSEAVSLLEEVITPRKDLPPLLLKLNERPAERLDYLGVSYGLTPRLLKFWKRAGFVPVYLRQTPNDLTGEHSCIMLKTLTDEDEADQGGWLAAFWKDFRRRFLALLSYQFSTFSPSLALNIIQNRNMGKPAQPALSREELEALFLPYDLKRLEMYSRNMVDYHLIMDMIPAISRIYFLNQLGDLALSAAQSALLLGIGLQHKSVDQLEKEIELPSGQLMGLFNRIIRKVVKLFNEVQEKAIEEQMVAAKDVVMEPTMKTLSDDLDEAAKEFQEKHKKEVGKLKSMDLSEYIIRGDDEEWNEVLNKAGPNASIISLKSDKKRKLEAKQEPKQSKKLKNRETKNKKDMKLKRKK

[2] = target: Ribosomal protein S6 kinase beta-1 (Homo sapiens, UniProt P23443)
[3] = target: T2, Serine/threonine-protein kinase TAO3 (Homo sapiens, UniProt Q9H2K8)
T2 sequence (Q9H2K8 whole entry): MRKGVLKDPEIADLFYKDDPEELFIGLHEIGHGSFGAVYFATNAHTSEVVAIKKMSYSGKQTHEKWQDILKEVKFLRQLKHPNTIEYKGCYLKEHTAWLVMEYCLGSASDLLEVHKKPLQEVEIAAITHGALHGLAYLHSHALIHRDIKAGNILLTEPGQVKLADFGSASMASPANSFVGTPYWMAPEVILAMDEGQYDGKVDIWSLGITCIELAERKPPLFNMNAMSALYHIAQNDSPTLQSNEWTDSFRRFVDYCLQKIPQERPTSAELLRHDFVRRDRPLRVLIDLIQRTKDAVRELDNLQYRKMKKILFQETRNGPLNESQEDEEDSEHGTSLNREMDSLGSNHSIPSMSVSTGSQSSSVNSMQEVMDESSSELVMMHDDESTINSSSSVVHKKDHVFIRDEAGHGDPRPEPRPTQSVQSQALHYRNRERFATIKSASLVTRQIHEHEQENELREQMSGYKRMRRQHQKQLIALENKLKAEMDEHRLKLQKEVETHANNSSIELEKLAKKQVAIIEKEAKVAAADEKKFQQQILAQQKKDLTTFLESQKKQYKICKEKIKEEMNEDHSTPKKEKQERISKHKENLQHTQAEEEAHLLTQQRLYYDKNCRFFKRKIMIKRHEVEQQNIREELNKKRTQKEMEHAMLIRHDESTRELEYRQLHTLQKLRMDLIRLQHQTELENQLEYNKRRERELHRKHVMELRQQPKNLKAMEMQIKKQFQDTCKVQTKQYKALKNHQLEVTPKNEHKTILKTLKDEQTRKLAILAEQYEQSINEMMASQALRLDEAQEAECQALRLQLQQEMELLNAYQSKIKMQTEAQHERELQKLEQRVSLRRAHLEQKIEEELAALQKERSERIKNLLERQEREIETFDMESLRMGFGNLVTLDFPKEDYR

[4] = target: Cyclin-dependent kinase 3 (Homo sapiens, UniProt Q00526)
Note: in the data inactive means no Kd found up to 30 µM.

Cyclin-dependent kinase 3, sequence (Q00526 whole entry): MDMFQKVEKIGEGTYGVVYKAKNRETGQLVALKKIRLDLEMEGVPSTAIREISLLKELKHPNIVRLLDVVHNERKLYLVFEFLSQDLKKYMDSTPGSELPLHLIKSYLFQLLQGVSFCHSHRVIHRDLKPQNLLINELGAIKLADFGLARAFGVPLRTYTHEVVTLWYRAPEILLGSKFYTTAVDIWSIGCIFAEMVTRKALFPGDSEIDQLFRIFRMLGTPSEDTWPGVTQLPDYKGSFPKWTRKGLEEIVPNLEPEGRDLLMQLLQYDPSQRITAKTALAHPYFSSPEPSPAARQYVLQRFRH
Ribosomal protein S6 kinase beta-1, sequence (P23443 whole entry): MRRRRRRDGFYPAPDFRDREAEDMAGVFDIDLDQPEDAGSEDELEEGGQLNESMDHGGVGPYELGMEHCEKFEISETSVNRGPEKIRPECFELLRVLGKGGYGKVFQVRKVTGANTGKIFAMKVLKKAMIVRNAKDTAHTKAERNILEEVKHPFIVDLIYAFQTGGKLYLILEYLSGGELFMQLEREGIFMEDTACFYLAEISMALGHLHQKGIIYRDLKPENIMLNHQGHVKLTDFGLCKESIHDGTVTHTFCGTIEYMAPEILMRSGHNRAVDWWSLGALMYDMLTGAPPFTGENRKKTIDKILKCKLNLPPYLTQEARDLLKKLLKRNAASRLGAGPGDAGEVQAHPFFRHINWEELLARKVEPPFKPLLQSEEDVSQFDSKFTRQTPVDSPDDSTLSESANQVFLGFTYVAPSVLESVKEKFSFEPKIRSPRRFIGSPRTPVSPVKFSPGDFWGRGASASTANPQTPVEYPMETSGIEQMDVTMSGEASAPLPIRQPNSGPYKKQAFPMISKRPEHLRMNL

| Kd [1] | Kd [2] | Kd [3] | Kd [4] | Compound |
| --- | --- | --- | --- | --- |
| > 30 µM (inactive) | > 30 µM (inactive) | > 30 µM (inactive) | > 30 µM (inactive) | COc1cccc2cc(-c3nc([C@H]4CC[C@H](C(=O)O)CC4)n4ncnc(N)c34)[nH]c12 [OSI-027] |
| > 30 µM (inactive) | > 30 µM (inactive) | > 30 µM (inactive) | > 30 µM (inactive) | O=S(=O)(c1cccc2c(O)nccc12)N1CCCNCC1 [HYDROXYFASUDIL] |
| > 30 µM (inactive) | > 30 µM (inactive) | 7.87 µM (active) | > 30 µM (inactive) | CC[C@@](C)(Nc1ccnc(-c2c[nH]c3ncccc23)n1)C(=O)NCC(F)(F)F [DECERNOTINIB] |
| > 30 µM (inactive) | > 30 µM (inactive) | > 30 µM (inactive) | > 30 µM (inactive) | CCc1cc2c(cc1N1CCC(N3CCOCC3)CC1)C(C)(C)c1[nH]c3cc(C#N)ccc3c1C2=O [ALECTINIB] |
| > 30 µM (inactive) | > 30 µM (inactive) | > 30 µM (inactive) | > 30 µM (inactive) | COc1cc(Nc2ncc(F)c(Nc3ccc4c(n3)N(COP(=O)(O)O)C(=O)C(C)(C)O4)n2)cc(OC)c1OC [FOSTAMATINIB] |
| > 30 µM (inactive) | > 30 µM (inactive) | > 30 µM (inactive) | > 30 µM (inactive) | Cc1ccc(C(=O)Nc2ccc(Oc3cc4cnn(C)c4cc3-c3cn[nH]c3)c(F)c2)c(=O)n1-c1ccc(F)cc1 [MERESTINIB] |
| > 30 µM (inactive) | > 30 µM (inactive) | > 30 µM (inactive) | > 30 µM (inactive) | c1cc(OCCN2CCCCC2)cc(-c2n[nH]c3ccc(-c4nc[nH]n4)cc23)c1 [CC-401] |
| > 30 µM (inactive) | > 30 µM (inactive) | > 30 µM (inactive) | > 30 µM (inactive) | O=C(NOC[C@H](O)CO)c1ccc(F)c(F)c1Nc1ccc(I)cc1F [MIRDAMETINIB] |
| > 30 µM (inactive) | > 30 µM (inactive) | > 30 µM (inactive) | > 30 µM (inactive) | C[C@@H]1COC(Nc2ccc3ncnc(Nc4ccc(OCc5nccs5)c(Cl)c4)c3c2)=N1 [VARLITINIB] |
| > 30 µM (inactive) | > 30 µM (inactive) | > 30 µM (inactive) | > 30 µM (inactive) | COc1cc2nccc(Oc3ccc(NC(=O)C4(C(=O)Nc5ccc(F)cc5)CC4)cc3)c2cc1OC [CABOZANTINIB] |
| > 30 µM (inactive) | > 30 µM (inactive) | > 30 µM (inactive) | > 30 µM (inactive) | CNC(=O)c1cccc(-c2ccc3c(N4CCOC[C@@H]4C)nc(N4CCOC[C@@H]4C)nc3n2)c1 [VISTUSERTIB] |
| > 30 µM (inactive) | > 30 µM (inactive) | > 30 µM (inactive) | > 30 µM (inactive) | S=C(NCc1ccc2c(c1)OCO2)N1CCN(c2ncnc3c2oc2ccccc23)CC1 [AMUVATINIB] |
| > 30 µM (inactive) | > 30 µM (inactive) | > 30 µM (inactive) | > 30 µM (inactive) | COc1ccc(-c2ccc3ncc4c(c3c2)n(-c2ccc(N3CCNCC3)c(C(F)(F)F)c2)c(=O)n4C)cn1 [BGT-226 FREE BASE] |
| > 30 µM (inactive) | > 30 µM (inactive) | > 30 µM (inactive) | > 30 µM (inactive) | CC(C)(O)CC(=O)NCCn1ccc2ncnc(Nc3ccc(Oc4cccc(C(F)(F)F)c4)c(Cl)c3)c21 [TAK-285] |
| > 30 µM (inactive) | > 30 µM (inactive) | > 30 µM (inactive) | > 30 µM (inactive) | O=C(Nc1ccc(OC(F)(F)F)cc1)c1sccc1NCc1ccnc2ccccc12 [OSI-930] |
| > 30 µM (inactive) | > 30 µM (inactive) | > 30 µM (inactive) | > 30 µM (inactive) | CCN(CCCOc1ccc2c(Nc3cc(CC(=O)Nc4cccc(F)c4)n[nH]3)ncnc2c1)CCOP(=O)(O)O [BARASERTIB] |
| > 30 µM (inactive) | > 30 µM (inactive) | > 30 µM (inactive) | > 30 µM (inactive) | O=C(O)c1ccc2c(c1)nc(Nc1cccc(Cl)c1)c1ccncc12 [SILMITASERTIB] |
| > 30 µM (inactive) | > 30 µM (inactive) | > 30 µM (inactive) | > 30 µM (inactive) | COc1cc2ncnc(Nc3ccc(F)c(Cl)c3)c2cc1NC(=O)/C=C/CN1CCCCC1 [DACOMITINIB ANHYDROUS] |
| > 30 µM (inactive) | > 30 µM (inactive) | > 30 µM (inactive) | > 30 µM (inactive) | COc1ccc2c(OCc3nnc4ccc(-c5ccccc5)nn34)ccnc2c1 [AMG-208] |
| > 30 µM (inactive) | > 30 µM (inactive) | > 30 µM (inactive) | > 30 µM (inactive) | O=C(NC[C@H](O)CO)c1ccncc1Nc1ccc(I)cc1F [PIMASERTIB] |
| > 30 µM (inactive) | > 30 µM (inactive) | > 30 µM (inactive) | > 30 µM (inactive) | C#Cc1cccc(Nc2ncnc3cc4c(cc23)OCCOCCOCCO4)c1 [ICOTINIB] |

| Compound | Kd [1] | Kd [2] | Kd [3] | Kd [4] |
| --- | --- | --- | --- | --- |
| COCCN1CCN(Cc2ccc(-c3n[nH]c4c3C(=O)c3c(NC(=O)NN5CCOCC5)cccc3-4)cc2)CC1 [RGB-286638] | > 30 µM (inactive) | > 30 µM (inactive) | > 30 µM (inactive) | > 30 µM (inactive) |
| C=CCN(/C=C1/C(=O)O[C@H](COC)[C@@]2(C)C1=C(O)C(=O)C1=C2[C@H](OC(C)=O)C[C@]2(C)C(=O)CC[C@@H]12)CC=C [SONOLISIB] | > 30 µM (inactive) | > 30 µM (inactive) | > 30 µM (inactive) | > 30 µM (inactive) |
| C=CC(=O)Nc1cc(Nc2nccc(-c3cn(C)c4ccccc34)n2)c(OC)cc1N(C)CCN(C)C [OSIMERTINIB] | > 30 µM (inactive) | > 30 µM (inactive) | > 30 µM (inactive) | > 30 µM (inactive) |
| Cc1c(Cn2c(C)nc3c(C(=O)O)cc(N4CCOCC4)cc32)cccc1C(F)(F)F [GSK-2636771] | > 30 µM (inactive) | > 30 µM (inactive) | > 30 µM (inactive) | > 30 µM (inactive) |
